The source of these data is patent US20110086759A1, “CHEMICAL COMPOUNDS” (SYNGENTA CROP PROTECTION, INC., priority 2007, published 2011).

SMILES strings stand for the structures.

What all share (format): in vivo
Assay [1] has as its system Alopecurus myosuroides (ALOMY). Nature of the assay: Post-emergence biological efficacy, glasshouse pot test. The note with it: 312 h. In outline: (§1)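 Scored 13 days after spraying on a 0 (no damage) to 100 (total damage) scale. Treatment was a post-emergence spray at 1000 or 250 g/ha, from acetone/water 50:50 plus 0.5% Tween 20, onto 8-day-old plants in soil pots. Growth at 24/16° C, 14 h photoperiod, 65% humidity, watered twice daily.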

Assay [2] concerns Setaria faberi (SETFA). The description is as above. The note with it: 312 h. In a few lines:
as §1

The test system of assay [3] is Ipomea hederaceae (IPOHE). Described as above. The note with it: Ipomoea hederacea, 312 h. In outline:
as §1

Assay [4] has as its system Solanum nigrum (SOLNI). The assay is described as above. The note with it: 312 h. In outline:
as §1

Assay [5] relates to Echinochloa crus-galli (ECHCG). The assay is described as above. The note with it: 312 h. In outline: as §1
The test system of assay [6] is Amaranthus retoflexus (AMARE). Described as above. The note with it: Amaranthus retroflexus, 312 h. In outline:
as §1

Assay [7] relates to Alopecurus myosuroides (ALOMY). Nature of the assay: Pre-emergence biological efficacy, glasshouse pot test. The note with it: 312 h. In a few lines:
(§2)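 Scores on a 0–100 damage scale were taken 13 days after spraying. Application rate 1000 or 250 g/ha, one day after sowing, in acetone/water-based aqueous spray containing 0.5% Tween 20.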

The test system of assay [8] is Setaria faberi (SETFA). The assay is described as above. The note with it: 312 h. In a few lines:
as §2

The subject of assay [9] is Ipomea hederaceae (IPOHE). Described as above. The note with it: Ipomoea hederacea, 312 h. In a few lines:
as §2

Assay [10] has as its system Solanum nigrum (SOLNI). Described as above. The note with it: 312 h. In a few lines:
as §2

For assay [11], the system named is Echinochloa crus-galli (ECHCG). Described as above. The note with it: 312 h. In outline: as §2
Assay [12] relates to Amaranthus retoflexus (AMARE). The assay is described as above. The note with it: Amaranthus retroflexus, 312 h. In a few lines:
as §2

Where [13] appears, read: Rate 1,000 g/ha, post-emergence spray, evaluated after 13 days (100=total damage to plant; 0=no damage to plant), read-out: Percentage damage caused to weed species, post-emergence, ALOMY.
The mark [14] stands for this setting: Rate 1,000 g/ha, post-emergence spray, evaluated after 13 days (100=total damage to plant; 0=no damage to plant), read-out: Percentage damage caused to weed species, post-emergence, SETFA.
Setting [15] is: Rate 1,000 g/ha, post-emergence spray, evaluated after 13 days (100=total damage to plant; 0=no damage to plant), read-out: Percentage damage caused to weed species, post-emergence, IPOHE.
The mark [16] stands for this setting: Rate 1,000 g/ha, post-emergence spray, evaluated after 13 days (100=total damage to plant; 0=no damage to plant), read-out: Percentage damage caused to weed species, post-emergence, SOLNI.
Setting [17] is: Rate 1,000 g/ha, post-emergence spray, evaluated after 13 days (100=total damage to plant; 0=no damage to plant), read-out: Percentage damage caused to weed species, post-emergence, ECHCG.
The mark [18] stands for this setting: Rate 1,000 g/ha, post-emergence spray, evaluated after 13 days (100=total damage to plant; 0=no damage to plant), read-out: Percentage damage caused to weed species, post-emergence, AMARE.
Where [19] appears, read: pre-emergence, rate 1,000 g/ha, evaluated after 13 days (100=total damage to plant; 0=no damage), read-out: Percentage damage caused to weed species, ALOMY.
Where [20] appears, read: pre-emergence, rate 1,000 g/ha, evaluated after 13 days (100=total damage to plant; 0=no damage), read-out: Percentage damage caused to weed species, SETFA.
[21] abbreviates: pre-emergence, rate 1,000 g/ha, evaluated after 13 days (100=total damage to plant; 0=no damage), read-out: Percentage damage caused to weed species, IPOHE.
[22] abbreviates: pre-emergence, rate 1,000 g/ha, evaluated after 13 days (100=total damage to plant; 0=no damage), read-out: Percentage damage caused to weed species, SOLNI.
Setting [23] is: pre-emergence, rate 1,000 g/ha, evaluated after 13 days (100=total damage to plant; 0=no damage), read-out: Percentage damage caused to weed species, ECHCG.
[24] abbreviates: pre-emergence, rate 1,000 g/ha, evaluated after 13 days (100=total damage to plant; 0=no damage), read-out: Percentage damage caused to weed species, AMARE.

`COC(=O)c1nc(C2CC2)nc(NC(Cc2c[nH]c3ccccc23)C(=O)OC)c1Cl` (stereo not drawn) [Compound 4-290, 5-Chloro-2-cyclopropyl-4-(2-indol-3-yl-1-methoxycarbonyl-ethylamino)-6-methoxycarbonyl-pyrimidine]: the pest or weed control at 1000 g/ha in [1] (post-emergence, 1,000 g/ha, evaluated after 13 days (100=total damage; 0=no damage), read-out: Percentage damage caused to weed species, ALOMY) turned out to be 30%; in the assay with Setaria faberi (SETFA) [2] (post-emergence, 1,000 g/ha, evaluated after 13 days (100=total damage; 0=no damage), read-out: Percentage damage caused to weed species, SETFA), 50%; in assay [3] (post-emergence, 1,000 g/ha, evaluated after 13 days (100=total damage; 0=no damage), read-out: Percentage damage caused to weed species, IPOHE), 70%; in the assay on Solanum nigrum (SOLNI) [4] (post-emergence, 1,000 g/ha, evaluated after 13 days (100=total damage; 0=no damage), read-out: Percentage damage caused to weed species, SOLNI), 80%; in assay [5] (post-emergence, 1,000 g/ha, evaluated after 13 days (100=total damage; 0=no damage), read-out: Percentage damage caused to weed species, ECHCG), 30%; in assay [6] (post-emergence, 1,000 g/ha, evaluated after 13 days (100=total damage; 0=no damage), read-out: Percentage damage caused to weed species, AMARE), 100%. Further, the pest or weed control at 1000 g/ha was 20% in assay [7] (pre-emergence, 1,000 g/ha, evaluated after 13 days (100=total damage; 0=no damage), read-out: Percentage damage ALOMY); 30% in the assay on Setaria faberi (SETFA) [8] (pre-emergence, 1,000 g/ha, evaluated after 13 days (100=total damage; 0=no damage), read-out: Percentage damage SETFA); 90% in [9] (pre-emergence, 1,000 g/ha, evaluated after 13 days (100=total damage; 0=no damage), read-out: Percentage damage IPOHE); 80% in the assay with Solanum nigrum (SOLNI) [10] (pre-emergence, 1,000 g/ha, evaluated after 13 days (100=total damage; 0=no damage), read-out: Percentage damage SOLNI); 40% in [11] (pre-emergence, 1,000 g/ha, evaluated after 13 days (100=total damage; 0=no damage), read-out: Percentage damage ECHCG); 80% in [12] (pre-emergence, 1,000 g/ha, evaluated after 13 days (100=total damage; 0=no damage), read-out: Percentage damage AMARE).

Regarding `COC(=O)c1nc(C2CC2)nc(N(C)CC2OCCO2)c1Cl` [Compound 5-54, 5-Chloro-2-cyclopropyl-4-[N-(1,3-dioxolan-2-yl)methyl-N-methyl-amino]-6-methoxycarbonyl-pyrimidine], the pest or weed control at 1000 g/ha was 0% in [1] (setting [13]); 30% with Setaria faberi (SETFA) [2] (setting [14]); 60% in [3] (setting [15]); 30% with Solanum nigrum (SOLNI) [4] (setting [16]); 0% in [5] (setting [17]); 80% in [6] (setting [18]). Further, the pest or weed control at 1000 g/ha is 0% in [7] (setting [19]); 0% in the assay with Setaria faberi (SETFA) [8] (setting [20]); 30% in assay [9] (setting [21]); 0% in the assay with Solanum nigrum (SOLNI) [10] (setting [22]); 0% in [11] (setting [23]); 50% in [12] (setting [24]).

As for `COC(=O)c1nc(C2CC2)nc(N(C)Cc2ccccc2Cl)c1Cl` [Compound 5-61, 5-Chloro-4-[N-(2-chlorophenyl-methyl)-N-methyl-amino]-2-cyclopropyl-6-methoxycarbonyl-pyrimidine], the pest or weed control at 1000 g/ha in [1] (setting [13]) was 20%; with Setaria faberi (SETFA) [2] (setting [14]), 80%; in [3] (setting [15]) it was 90%; with Solanum nigrum (SOLNI) [4] (setting [16]) it was 90%; in [5] (setting [17]), 80%; in assay [6] (setting [18]), 100%. Besides, the pest or weed control at 1000 g/ha came out at 30% in [7] (setting [19]); 40% in the assay on Setaria faberi (SETFA) [8] (setting [20]); 70% in assay [9] (setting [21]); 20% in the assay with Solanum nigrum (SOLNI) [10] (setting [22]); 40% in [11] (setting [23]); 70% in [12] (setting [24]).

As for `COC(=O)c1nc(C2CC2)nc(N(C)Cc2cccc(Cl)c2)c1Cl` [Compound 5-62, 5-Chloro-4-[N-(3-chlorophenyl-methyl)-N-methyl-amino]-2-cyclo-propyl-6-methoxy-carbonylpyrimidine], the pest or weed control at 1000 g/ha in [1] (setting [13]) turned out to be 20%; with Setaria faberi (SETFA) [2] (setting [14]), 40%; in [3] (setting [15]), 90%; with Solanum nigrum (SOLNI) [4] (setting [16]), 80%; in assay [5] (setting [17]), 30%; in [6] (setting [18]), 100%. Besides, the pest or weed control at 1000 g/ha is 0% in assay [7] (setting [19]); 10% in the assay on Setaria faberi (SETFA) [8] (setting [20]); 60% in assay [9] (setting [21]); 20% in the assay on Solanum nigrum (SOLNI) [10] (setting [22]); 0% in [11] (setting [23]); 100% in assay [12] (setting [24]).

As for `COC(=O)c1nc(C2CC2)nc(N(C)Cc2ccc(Cl)cc2)c1Cl` [Compound 5-63, 5-Chloro-4-[N-(4-chlorophenyl-methyl)-N-methyl-amino]-2-cyclo-propyl-6-methoxy-carbonylpyrimidine], the pest or weed control at 1000 g/ha is 30% in [1] (setting [13]); 70% in the assay with Setaria faberi (SETFA) [2] (setting [14]); 90% in [3] (setting [15]); 80% with Solanum nigrum (SOLNI) [4] (setting [16]); 40% in assay [5] (setting [17]); 100% in assay [6] (setting [18]). Also, the pest or weed control at 1000 g/ha in assay [7] (setting [19]) was 10%; with Setaria faberi (SETFA) [8] (setting [20]), 20%; in assay [9] (setting [21]), 70%; with Solanum nigrum (SOLNI) [10] (setting [22]) it was 30%; in [11] (setting [23]) it was 0%; in assay [12] (setting [24]), 100%.

With `COC(=O)c1nc(C2CC2)nc(N(C)Cc2ccccc2F)c1Cl` [Compound 5-64, 5-Chloro-2-cyclo-propyl-4-[N-(2-fluorophenylmethyl)-N-methyl]-6-methoxy-carbonylpyrimidine], the pest or weed control at 1000 g/ha in [1] (setting [13]) worked out at 20%; in the assay with Setaria faberi (SETFA) [2] (setting [14]), 90%; in [3] (setting [15]), 100%; in the assay on Solanum nigrum (SOLNI) [4] (setting [16]) it was 90%; in assay [5] (setting [17]), 80%; in [6] (setting [18]), 100%. In addition, the pest or weed control at 1000 g/ha in [7] (setting [19]) amounted to 10%; in the assay with Setaria faberi (SETFA) [8] (setting [20]) it was 10%; in assay [9] (setting [21]) it was 80%; in the assay with Solanum nigrum (SOLNI) [10] (setting [22]), 70%; in [11] (setting [23]), 20%; in assay [12] (setting [24]), 70%.

As for `COC(=O)c1nc(C2CC2)nc(N(C)Cc2cccc(F)c2)c1Cl` [Compound 5-65, 5-Chloro-2-cyclopropyl-4-[N-(3-fluorophenylmethyl)-N-methyl-amino]-6-methoxy-carbonylpyrimidine], the pest or weed control at 1000 g/ha was determined as 30% in assay [1] (setting [13]); 80% in the assay with Setaria faberi (SETFA) [2] (setting [14]); 90% in assay [3] (setting [15]); 100% with Solanum nigrum (SOLNI) [4] (setting [16]); 70% in [5] (setting [17]); 100% in [6] (setting [18]). The pest or weed control at 1000 g/ha in assay [7] (setting [19]) amounted to 20%; in the assay on Setaria faberi (SETFA) [8] (setting [20]), 20%; in assay [9] (setting [21]), 100%; in the assay with Solanum nigrum (SOLNI) [10] (setting [22]), 90%; in assay [11] (setting [23]) it was 10%; in assay [12] (setting [24]), 100%.
